Measurements: patent US6716819B2, “Use of xylitol to reduce ionic strength and activate endogenous antimicrobials for prevention and treatment of infections” (University of Iowa Research Foundation, priority 2000, dated 2004)

Tests used:
CF epithelia = assay: Liquid absorption by airway epithelia; type: cell-based, human; settings: 60 μl saline/xylitol mixtures apical, 4 hours, increasing xylitol concentration
Experimental: (§1) FIG. 2. Effect of apical xylitol on rate of liquid absorption by non-CF and CF epithelia. Sixty μl of saline solution, xylitol solution, or indicated mixtures of the two were applied to the apical surface. Four hours later the solution was removed to measure rate of liquid absorption. A short incubation period was chosen to avoid secondary changes in the epithelium due to the large volume of apical liquid. Data are mean±SEM; n=15 from 3 different experiments. Some SEM bars are hidden by symbols.
(§2) Airway epithelial cells were isolated from tracheal and bronchial tissue. […] All epithelia were evaluated with scanning electron microscopy for the development of a ciliated apical surface.
(§3) Liquid absorption was measured using methods similar to those previously described (Smith, J. J., P. H. Karp, and M. J. Welsh. 1994. Defective fluid transport by cystic fibrosis airway epithelia. J. Clin. Invest. 93:1307-1311). […] After incubation for 4 hours, apical solutions were collected under mineral oil and their volume measured as previously described (Zabner, J., J. J. Smith, P. H. Karp, J. H. Widdicombe, and M. J. Welsh. 1998. Loss of CFTR chloride channels alters salt absorption by cystic fibrosis airway epithelia in vitro. Mol. Cell. 2:397-403; Smith, J. J., P. H. Karp, and M. J. Welsh. 1994. Defective fluid transport by cystic fibrosis airway epithelia. J. Clin. Invest. 93:1307-1311). […]

non-CF epithelia = assay: Liquid absorption by airway epithelia; type: cell-based, human; settings: 60 μl saline/xylitol mixtures apical, 4 hours, increasing xylitol concentration
Experimental: as §1, §2, §3

[1] = system: coagulase-negative Staphylococcus; assay: Growth in carbon-starved M9 media (O.D.); type: cell-based; settings: M9 media supplemented at 100 mM
Experimental: (§4) FIGS. 5(A-G). […] A, B and C. Growth of P. aeruginosa (A), S. aureus, (B), and coagulase-negative Staphylococcus (C) were measured as O. D. M9 media alone is indicated by open triangle. Xylitol (closed circle), or succinate, mannitol, or sucrose (open circles), were added to M9 media at 100 mM as indicated. D. Nasal swabs were collected and cultured for 3 days in Lauria-Bertani media (open circles), in minimal M9 media (open squares), or in M9 media supplemented with 100 mM xylitol (closed circles). E, F and G. P. aeruginosa (E), S. aureus (F), and coagulase-negative Staphylococcus (G) were cultured in Lauria-Bertani media alone (open triangles), Lauria-Bertani media with 100 mM xylitol (closed circles), and Lauria-Bertani media containing tobramycin or levofloxacin (open circles).
(§5) To test the effect of xylitol on growth of different airway pathogens in a carbon-starved media, P. aeruginosa, S. aureus, and coagulase-negative Staphylococcus were grown overnight in Lauria-Bertani medium. The bacteria were then centrifuged and resuspended in M9 media containing either 100 mM succinate, mannitol, or sucrose, respectively, and grown overnight at 37° C. The bacteria were centrifuged and resuspended in M9 media alone. M9 media containing 100 mM xylitol, or 100 mM of the indicated metabolizable sugar, as positive control. The optical density (O.D.) was measured after 0, 1, 2, and 4 hours at 600 nm on a Beckman DU640 Spectrophotometer (Schaumburg, Ill.). To test the antibiotic effect of xylitol, P. aeruginosa, S. aureus, and coagulase-negative Staphylococcus were grown overnight in Lauria-Bertani medium. The bacteria were then centrifuged and resuspended in Lauria-Bertani media with and without 100 mM xylitol. As a positive control, antibiotics with specific activity to each of the bacteria were added to the media (40 μg/ml tobramycin or 40 μg/ml levofloxacin).

P. aeruginosa = assay: Growth in carbon-starved M9 media (O.D.); type: cell-based; settings: M9 media supplemented at 100 mM
Experimental: as §4, §5

[2] = incorporated in chewing gum; cited from earlier work
[3] = system: coagulase-negative Staphylococcus
Excerpt: Effect of xylitol administration to nasal mucosa on coagulase-negative Staphylococcus.
Subjects were over 18 years old. […] Twenty-one normal healthy subjects (10 male and 11 female, age 20 to 52 years) participated.
The design was a double-blind, randomized, cross-over study. Subjects were randomized to one of two groups: xylitol followed by saline or saline followed by xylitol. A culture of both anterior nares was obtained on day zero. Then subjects sprayed each nostril with a prefilled syringe of solution 4 times per day for 4 days. On the morning of day 5, subjects did their final application at breakfast time, then a nasal swab was obtained 2 hours later. No treatment was administered for the next 7 days. Subjects then repeated the protocol with the opposite solution. The saline solution was 0.9% NaCl in water (Baxter Health Care Corp., Deerfield, Ill.). The xylitol solution was 5% xylitol (304 mM) in water. The solutions were nebulized using an Accuspray syringe (Becton Dickinson Pharmaceutical Systems, Franklin Lakes, N.J.), containing 250 μl of solution. The xylitol and saline syringes were identical. The mass medium diameter of particles was ˜60 μm. It was impossible to disguise the sweet taste of xylitol.
Samples for cultures were obtained with sterile rayon swabs (Culturette Collection and Transport System, Becton Dickinson Microbiology Systems, Sparks, Md.). […] The plates were incubated at 37° C. for 24 hours and the colonies of coagulase-negative Staphylococcus colonies were identified and counted using a Cling-On Grid (Spiral Biotech, Bethesda, Md.). […]
A randomized, double-blind, cross-over study was performed. The nasal mucosa was swabbed and the number of coagulase-negative Staphylococcus was determined by culture. […] After 4 days, the number of nasal coagulase-negative Staphylococcus was counted again. […]
Analysis of variance for a cross-over design was applied on the change in bacterial count from pretreatment to post treatment. […] Thus, the comparison of xylitol vs. saline was evaluated from the data of both nostrils and both sequences.

SMILES: OC[C@@H](O)[C@H](O)[C@@H](O)CO [xylitol]
- rate of liquid absorption (CF epithelia): reduced the rate of liquid absorption
- rate of liquid absorption (non-CF epithelia): reduced the rate of liquid absorption
- growth of coagulase-negative Staphylococcus [1]: failed to support growth
- growth of P. aeruginosa (P. aeruginosa): no growth
- effect on dental caries [2]: prevent dental caries
- adverse effects reported by subjects ([3]; in vivo): none of the subjects tested reported adverse effects
- median change in coagulase-negative Staphylococcus count ([3]; normal subjects, nasal spray 4 times a day for 4 days, interquartile range in brackets): 500 (interquartile range of 1152 to 120) cfu
- average reduction of coagulase-negative Staphylococcus in treated nostrils ([3]; normal subjects, nasal spray 250 μl per nostril 4 times a day for 4 days, p=0.05 vs saline): 597±242 cfu
